Data set [1] in a line: Intrinsic clearance in human liver microsomes. On the technique in general: Liver microsomes are vesicles of endoplasmic reticulum, rich in cytochrome P450 enzymes.
Data set [2] in a line: Apparent permeability across basal to apical membrane in human Caco-2 cells. (Caco-2 cells form a polarised layer with tight junctions and transporters.)
Data set [3] can be described thus: Protein binding in human plasma.
Data set [4] in a line: Half life in mouse at 2 umol/kg, po. Conditions: in vivo.
Data set [5] in a line: in vivo. Conditions: mouse, po, 2 umol/kg.
A short description of data set [6]: Half life in mouse at 1 umol/kg, iv. Conditions: in vivo.
Data set [7] in a line: Clearance in mouse at 2 umol/kg, po or 1 umol/kg, iv. Conditions: in vivo.
Data set [8] in a line: Intrinsic clearance in mouse liver microsome. Conditions: microsomes.
Data set [9] in a line: Apparent permeability across apical to basal membrane in human Caco-2 cells.
Data set [10] is described as follows: Protein binding in mouse plasma.
The nature of data set [11]: in vivo. Conditions: mouse, po, 2 umol/kg. This is another data set of the same source.

On to `C[C@H]1CN(Cc2cc(Cl)cc(NC(=O)CC(CCC(=O)O)c3ccccc3)c2Cl)CCN1C(=O)C1CCCC1` (stereo in doubt; 12b), for which the CLH in data set [1] was less than 10 µL/min/mg.
The term Papp B→A denotes how fast a substance crosses the layer from the basolateral side. As a reminder, the fraction unbound is the share of the substance not bound to proteins or other matrix. A word on the half-life: it is how long it takes for the measured level to halve. A lower half-life goes with rapid decline. In general, AUC refers to the area under the concentration-time curve, a measure of exposure. A lower AUC goes with less exposure. A word on the Papp A→B: it is how fast a substance crosses the layer from the apical side. By bioavailability is commonly meant dose-corrected exposure relative to a reference, in per cent. Higher therefore signals good availability. As to `Cc1c(CN2CCN(C(=O)C3CCCC3)[C@@H](C)C2)cc(F)cc1NC(=O)CC(CCC(=O)O)c1ccccc1` (stereo in doubt; 6a), the Papp B→A in data set [2] is 39 ×10⁻⁶ cm/s. The fraction unbound is 0.006 in data set [3] and 0.028 in [10]. Also, the values for the half-life in data set [4] and in [6] were 1.5 h and 1.2 h, respectively. The molecule further registered an AUC in the data set “in vivo [5]” of 0.2 µM·h. This molecule showed a clearance in data set [7] of 76.7 mL/min/kg. Besides, the figures for the CLH in data set [1] and in data set [8] were less than 10 µL/min/mg and 17 µL/min/mg, respectively. For the same molecule, the Papp A→B in data set [9] is 1.3 ×10⁻⁶ cm/s. Further, the bioavailability in “in vivo [11]” came out at 46%.
In the case of `Cc1c(CN2CCN(C(=O)C3CCCC3)[C@@H](C)C2)cc(F)cc1NC(=O)CCc1ccccc1`, the CLH in data set [1] came out at 1900 µL/min/mg.
`Cc1c(CN2CCN(C(=O)C3CCCC3)[C@@H](C)C2)cc(F)cc1NC(=O)CC(CCC(=O)O)c1ccccc1` (stereo in doubt; 6b) displayed a CLH in [1] of 21 µL/min/mg.
On to `C[C@H]1CN(Cc2cc(Cl)cc(NC(=O)CC(CCC(=O)O)c3ccccc3)c2Cl)CCN1C(=O)C1CCCC1` (stereo in doubt; 12a), for which the Papp B→A in data set [2] was 45 ×10⁻⁶ cm/s. Moreover, the fraction unbound in data set [3] is 0.003; in data set [10], 0.006. Besides, the half-life in data set [4] and in [6] was 1.5 h each time. Further, the AUC in the data set “in vivo [5]” stood at 4 µM·h. The same molecule had a clearance in data set [7] of 8.67 mL/min/kg. The CLH in data set [1] was 31 µL/min/mg; in data set [8] it was less than 10 µL/min/mg. For the same molecule, in data set [9], the apparent permeability from apical to basolateral (Papp A→B) is 13 ×10⁻⁶ cm/s. The bioavailability in the data set “in vivo [11]” was determined as 100%.

The record behind these values is ChEMBL document CHEMBL4732159, “Discovery of 6-Oxo-4-phenyl-hexanoic acid derivatives as RORγt inverse agonists showing favorable ADME profile” (Bioorg Med Chem Lett, 2021).
